# Assay results taken from patent US4192871A, “Chemical compounds” (Glaxo Laboratories Limited, priority 1976, dated 1980).
# Where a name gives a salt, the structure may show the parent alone.
# Columns and labels:
# pH of the salt solutions = format: physicochemical
# Method in brief: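 Aminoester free base mixed with 1 molar part acid in water, stirred or shaken, with extra acid or ethanol evaporation in some methods, then made up with water to set weight. Undissolved base collected and weighed to calculate dissolved base; solution membrane-filtered and pH measured.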
# [1] = dissolution of the 11β-aminoester salts in aqueous acid (Table 5 and Examples 101, 225-229); format: physicochemical; settings: for concentration of aqueous solution of the citrate: citric acid monohydrate in water, filtered solution
# Method in brief: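 11β-Aminoester free base combined with 1 molar part of acid (citric acid as monohydrate) in water, with extra acid or prior ethanol co-evaporation in some methods. Solution made up to set weight, undissolved base collected and weighed to calculate dissolved amount. Solution pH measured.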
# [2] = aqueous solution of the citrate, filtered, 9.5-10 mg/ml
# [3] = aqueous solution of the salt, Table 5
# [4] = method D: 1 molar part acid, undissolved material weighed, WT. of solution 10 g, except Ex. 136: 8.95, 140: 9.52, 165 and 167: 10.1, 190 and 198: 9.8, 191: 8.9, 194: 6.6, 204: 10.09, 219: 10.6 g
# [5] = method B: further acid added, undissolved material weighed, WT. of solution 10 g, except Ex. 130 and 141: 9.2, 142: 9.23, 143, 144, 189 and 199: 9.8, 149: 10.6, 153: 7.9, 162 and 188: 9.5, 163: 68, 166: 10.4, 168: 10.7, 169: 10.9, 183: 8.05, 184 and 201: 9.83, 185: 7.1, 186: 9.3, 192: 10.07, 193: 6.4, 195: 6.8, 196: 7, 197: 7.2, 200: 10.1, 206: 15 g
# [6] = method C: ethanol evaporated, residue in water, undissolved material weighed, WT. of solution Ex. 118: 10, 120: 10.4, 148: 9.54, 152: 5.6, 154: 9.1, 155: 8.77, 156: 9.06, 157: 9.5, 158: 9.38, 159: 9.17, 179: 9.65, 180: 11.7, 182: 4.9, 202: 12.05, 213: 12, 214: 11.5, 215: 11.1, 216: 11.6, 217: 12.1 g
# [7] = method A: clear solution, 1 molar part acid, made up with water to WT. of solution 10 g, except Ex. 121 and 150: 12, 123: 12.3, 124: 7.5, 129: 10.3, 135 and 139: 8.95, 164: 10.35, 170: 10.4, 181: 10.04, 187: 9.5, 210: 10.2, 221: 15 g
SMILES,pH (pH of the salt solutions; [3]),"Dissolved aminoester [1, 5] [mg]",further results
CCCCN(C)CC(=O)O[C@H]1C[C@]2(C)[C@@H](C(C)=O)CC[C@H]2[C@@H]2CC[C@H]3C[C@H](O)CC[C@@H]3[C@H]21 [Example 228 citrate salt],,,pH (pH of the salt solutions; [2]): 3.77; concentration of aqueous solution of the citrate [1]: 10000 µg/mL
CCN(CC)CC(=O)OC1CC2(C)C(C(C)=O)CCC2C2CCC3CC(O)C(OC(C)C)CC3(C)C12 (stereo not drawn) [Example 167],3.65,,"Dissolved aminoester [1, 4]: 93 mg"
CCN(CC)CC(=O)O[C@H]1C[C@]2(C)[C@@H](C(C)=O)CC[C@H]2[C@@H]2CC[C@H]3C[C@H](O)[C@@H](Br)C[C@]3(C)[C@H]21 [Example 208],2.6,65,
CC(=O)[C@H]1CC[C@H]2[C@@H]3CC[C@H]4C[C@H](O)CC[C@]4(C)[C@H]3[C@@H](OC(=O)C(C)N3CCC(C)CC3)C[C@]12C (stereo partly drawn) [Example 179],,,"pH (pH of the salt solutions; aqueous solution, pH adjusted with sodium hydroxide solution): 3.66; Dissolved aminoester [1, 6]: 96.5 mg"
CC(=O)C1CCC2C3CCC4CC(O)CCC4(C)C3C(OC(=O)CNC(C)CC(C)C)CC12C (stereo not drawn) [Example 163],3.08,68,
CC(=O)[C@H]1CC[C@H]2[C@@H]3CC[C@H]4C[C@H](O)CC[C@]4(C)[C@H]3[C@@H](OC(=O)CN(C)C(C)CC(C)C)C[C@]12C (stereo partly drawn) [Example 190],3.43,,"Dissolved aminoester [1, 4]: 86 mg"
CC(=O)[C@H]1CC[C@H]2[C@@H]3CC[C@H]4C[C@H](O)CC[C@]4(C)[C@H]3[C@@H](OC(=O)CNCC(C)(C)C)C[C@]12C [Example 142],3.12,92.3,
CCCN(CCC)CC(=O)O[C@H]1C[C@]2(C)[C@@H](C(C)=O)CC[C@H]2[C@@H]2CC[C@H]3C[C@H](O)CC[C@]3(C)[C@H]21 [Example 216],3.58,,"Dissolved aminoester [1, 6]: 116 mg"
CC(=O)[C@H]1CC[C@H]2[C@@H]3CC[C@H]4C[C@H](O)CC[C@]4(C)[C@H]3[C@@H](OC(=O)CN3CCCCCCC3)C[C@]12C [Example 128],2.65,68,
CCCCN(CC)CC(=O)O[C@H]1C[C@]2(C)[C@@H](C(C)=O)CC[C@H]2[C@@H]2CC[C@H]3C[C@H](O)CC[C@]3(C)[C@H]21 [Example 221],3.52,,"Dissolved aminoester [1, 7]: 150 mg"
CCCCN(C)CC(=O)OC1CC2(C)C(C(C)=O)CCC2C2CCC3CC(O)C(OC(C)=O)CC3(C)C12 (stereo not drawn) [Example 170],3.7,,"Dissolved aminoester [1, 7]: 104 mg"
CC(=O)[C@H]1CC[C@H]2[C@@H]3CC[C@H]4C[C@H](O)CC[C@]4(C)[C@H]3[C@@H](OC(=O)CN(C)C(C)(C)C)C[C@]12C [Example 201],3.12,98.3,
CC(=O)[C@H]1CC[C@H]2[C@@H]3CC[C@H]4C[C@H](O)CC[C@]4(C)[C@H]3[C@@H](OC(=O)CN3CCCC3)C[C@]12C [Example 155],3.45,,"Dissolved aminoester [1, 6]: 87.7 mg"
COC(=O)[C@H]1CC[C@H]2[C@@H]3CC[C@H]4C[C@H](O)CC[C@]4(C)[C@H]3[C@@H](OC(=O)CN3CCCCC3)C[C@]12C [Example 125],2.82,98,
CCCCCCN(C)CC(=O)O[C@H]1C[C@]2(C)[C@@H](C(C)=O)CC[C@H]2[C@@H]2CC[C@H]3C[C@H](O)CC[C@]3(C)[C@H]21 [Example 189],2.98,93,
CCOC1CC2(C)C(CCC3C4CCC(C(C)=O)C4(C)CC(OC(=O)CNCCC(C)C)C32)CC1O (stereo not drawn) [Example 165],3.68,,"Dissolved aminoester [1, 4]: 76.5 mg"

SMILES,pH (pH of the salt solutions; [3]),"Dissolved aminoester [1, 5] [mg]",further results
CCC(C)CN(CC)CC(=O)O[C@H]1C[C@]2(C)[C@@H](C(C)=O)CC[C@H]2[C@@H]2CC[C@H]3C[C@H](O)CC[C@]3(C)[C@H]21 (stereo partly drawn) [Example 196],2.53,39,
CC(=O)[C@H]1CC[C@H]2[C@@H]3CC[C@H]4C[C@H](O)CC[C@]4(C)[C@H]3[C@@H](OC(=O)CN(C)CC(C)(C)C)C[C@]12C [Example 188],2.58,31,
CCCN(CCC)CC(=O)O[C@H]1C[C@]2(C)[C@@H](C(C)=O)CCC[C@H]2[C@@H]2CC[C@H]3C[C@H](O)[C@@H](OCC)C[C@]3(C)[C@H]21 [Example 226 citrate salt],,,pH (pH of the salt solutions; [2]): 2.85; concentration of aqueous solution of the citrate [1]: 9500 µg/mL
CC(=O)[C@H]1CC[C@H]2[C@@H]3CC[C@H]4C[C@H](O)CC[C@]4(C)[C@H]3[C@@H](OC(=O)CN(C)C)C[C@]12C [Example 151],3.6,,"Dissolved aminoester [1, 7]: 100 mg"
CC(=O)C1CCC2C3CCC4CC(O)C(C)CC4(C)C3C(OC(=O)CN3CCC(C)CC3)CC12C (stereo not drawn) [Example 175],2.96,95,
CC(=O)[C@H]1CC[C@H]2[C@@H]3CC[C@H]4C[C@H](O)CC[C@@H]4[C@H]3[C@@H](OC(=O)CN3CCC(C)CC3)C[C@]12C [Example 229 citrate salt],,,pH (pH of the salt solutions; [2]): 3.73; concentration of aqueous solution of the citrate [1]: 10000 µg/mL
CCN(C)CC(=O)O[C@H]1C[C@]2(C)[C@@H](C(C)=O)CC[C@H]2[C@@H]2CC[C@H]3C[C@H](O)CC[C@]3(C)[C@H]21 [Example 116],3.63,,"Dissolved aminoester [1, 7]: 100 mg"
"CCCCN(CC)CC(=O)O[C@H]1C[C@]2(C)[C@@H](C(C)=O)CC[C@H]2[C@@H]2CC[C@H]3C[C@H](O)CC[C@]3(C)[C@H]21.O=C(O)CC(O)(CC(=O)O)C(=O)O [Example 222, 11β-(N-Butyl-N-ethylaminoacetoxy)-3α-hydroxy-5α-pregnan-20-one, citrate salt]",,,"pH (pH of the salt solutions; solution in 0.9% w/v saline, pH adjusted with sodium hydroxide solution, citrate salt): 3.97; pH (pH of the salt solutions; solution in 0.9% w/v saline, pH adjusted with sodium hydroxide solution, listed as Example 224, citrate salt): 4.00; pH (pH of the salt solutions; solution of the salt in saline, before any adjustment): 3.62; Dissolved aminoester ([1]; method A, 0.9% w/v saline in place of water, WT. of solution Ex. 122: 37.5 g, 222: 50 g): 500 mg"
CCCC(C)NCC(=O)O[C@H]1C[C@]2(C)[C@@H](C(C)=O)CC[C@H]2[C@@H]2CC[C@H]3C[C@H](O)CC[C@]3(C)[C@H]21 (stereo partly drawn) [Example 141],2.89,77.3,
CC(=O)[C@H]1CC[C@H]2[C@@H]3CC[C@H]4C[C@H](O)CC[C@]4(C)[C@H]3[C@@H](OC(=O)CN(C)Cc3ccccc3)C[C@]12C [Example 119],2.7,73,
CCCCCN(C)CC(=O)O[C@H]1C[C@]2(C)[C@@H](C(C)=O)CC[C@H]2[C@@H]2CC[C@H]3C[C@H](O)CC[C@]3(C)[C@H]21 [Example 185],2.86,65.3,
CC(=O)[C@H]1CC[C@H]2[C@@H]3CC[C@H]4C[C@H](O)CC[C@]4(C)[C@H]3[C@@H](OC(=O)CN3CCCCC3)C[C@]12C [Example 156],3.52,,"Dissolved aminoester [1, 6]: 90.3 mg"
CC(=O)[C@H]1CC[C@H]2[C@@H]3CC[C@H]4C[C@H](O)CC[C@]4(C)[C@H]3[C@@H](OC(=O)CNC34CC5CC(CC(C5)C3)C4)C[C@]12C [Example 146],2.92,86,
CCCCN(CC)CC(=O)O[C@H]1C[C@]2(C)[C@@H](C(C)=O)CC[C@H]2[C@@H]2CC[C@H]3C[C@H](O)[C@@H](OCC)C[C@]3(C)[C@H]21 [Example 150],3.35,,"Dissolved aminoester [1, 7]: 120 mg"
CCCN(CCC)CC(=O)O[C@H]1C[C@]2(C)[C@@H](C(C)=O)CC[C@H]2[C@@H]2CC[C@H]3C[C@](C)(O)CC[C@]3(C)[C@H]21 [Example 132],3.4,,"Dissolved aminoester [1, 7]: 100 mg"
CC(=O)[C@H]1CC[C@H]2[C@@H]3CC[C@H]4C[C@](C)(O)CC[C@]4(C)[C@H]3[C@@H](OC(=O)CN3CCCCC3)C[C@]12C [Example 133],3.7,,"Dissolved aminoester [1, 7]: 100 mg"
